Reference: article PMC1559639 (BMC Clinical Pharmacology, 2006)
Values joined by “and” are separate entries in the source; they are usually repeats but may differ in a detail not shown here. Equal entries are not always repeated. Where two headings read alike, the source gives them in different places.

What was measured:
[1] = Plasma kinetics after single oral dose of 300 mg Pycnogenol in healthy volunteers; assay type: in vivo, human; conditions: for tmax: read-out: tmax (time of maximal plasma concentration); for half-life: read-out: term t½ (terminal half-life) (converted)
Protocol: Eleven volunteers (five female and six male) participated in this study. After a 24 hour diet free of flavonoids (no vegetables, fruits and fruit juices or marmalades, tea, coffee, cocoa, wine and beer) a venous blood catheter was inserted into an antecubital vein and blood samples were drawn to obtain basal values (t = 0 h at 8:00 a.m.). […] After each blood sampling mineral water was served. Blood samples were obtained at t = 0.5 h, 1 h, 2 h, 4 h, 6 h, 8 h, 10 h, 12 h and 14 h. Samples were centrifuged and plasma was aliquoted, shock frozen and stored at -80°C until further analysis.
(§1) Plasma samples of 2.0 mL were prepared for analysis. For determination of total plasma concentration, to each sample 20 U β-glucuronidase (type H-3 from Helix pomatia; EC 3.2.1.31) and 20 U sulfatase (type H-1 from Helix pomatia; EC 3.1.6.1) were added in 50 mM sodium acetate buffer (pH 5.0) and incubated for 2 h at 37°C under gentle shaking. Samples for determination of free plasma concentrations were prepared without prior incubation with enzymes. Each 20 μL of p-hydroxybenzoic acid methylester (100 μg/mL; for HPLC UV detection) and hydrochinone (10 μg/mL; for HPLC electrochemical detection) were added as internal standards and samples were acidified with 100 μL 1 M-HCl. Samples were extracted twice with each 3 mL acetic acid methylester for 20 min, using a roller mixer, followed by centrifugation (20°C) 5 min. The organic phases of both extractions were separated, combined and evaporated to dryness under a gentle stream of nitrogen at 25°C. The resulting residue was reconstituted in 100 μL methanol and subjected to HPLC analysis.
(§2) The HPLC system was a Waters HPLC (Milford, MA, USA) consisted of a 1525 binary pump, a 717plus autosampler, a 2487 dual wavelength absorbance detector set at the detection wavelength of 280 nm and an electrochemical detector CLC 100 (Chromsystems, Munich, Germany) set at an oxidation voltage of 0.5 V. The second detector was connected to the control system by a satellite interface (Waters). Data collection and integration were accomplished using Breeze™ software version 3.30. Analysis was performed on a Zorbax SB C8 column (150 × 4.6 mm I.D., 5 μm particle size, Agilent Technologies, Palo Alto, CA, USA).
(§3) Typically, 20 μL of sample were injected and separated at a flow rate of 1 mL/min. Isocratic elution was performed using water (containing 0.6 mM 1-octanesulfonic acid sodium salt, 0.27 mM ethylenediaminetetraacetic acid disodium salt, 0.04 M triethylamine; pH 2.95 adjusted with phosphoric acid) and acetonitrile (ACN, HPLC gradient quality, Fisher Scientific, Schwerte, Germany). Method A (for UV detection of ferulic acid, M2 (δ-(3-Methoxy-4-hydroxy-phenyl)-γ-valerolactone), U1, U2, U3, U4, U7, U8, and U9) used water/ACN at 85:15 (v/v).

[2] = cited from earlier work; for t½: reported previously
clinical = assay type: in vivo; conditions: for % conjugated (mean degree of conjugation with sulfate and glucuronic acid): steady state plasma, mean of volunteers; for concentration at 4 h: both sexes, 200 mg
Protocol: Five volunteers (four female and one person) participated in this study. After a 24 hour diet free of flavonoids blood samples were drawn to obtain basal values. […] It was assumed that steady state plasma concentrations were reached after 5 days.
Four hours after the last intake of Pycnogenol on day five a second blood sample was obtained from each volunteer. Again, a 24 hour period of a diet free of flavonoids preceded this blood sampling. Blood samples were centrifuged and plasma was aliquoted, shock frozen and stored at -80°C until further analysis.
as §1, §2, §3

MMP-9 release = conditions: in vitro / cell culture assays; read-out: IC50, inhibition of MMP-9 release; cited from earlier work
[3] = both sexes, human, plasma, po, 300 mg, human volunteers, single oral dose 300 mg Pycnogenol, total (free and conjugated) plasma, t = 14 h, mean ± SD, read-out: AUC [0-t]
[4] = both sexes, human, plasma, po, 300 mg, human volunteers, single oral dose 300 mg Pycnogenol, total plasma, mean ± SD, read-out: AUC [t-8]
[5] = both sexes, human, plasma, po, 300 mg, human volunteers, single oral dose 300 mg Pycnogenol, total plasma, mean ± SD, read-out: cmax (maximal plasma concentration)
[6] = both sexes, human, plasma, po, 300 mg, human volunteers, single oral dose 300 mg Pycnogenol, total plasma, mean ± SD
[7] = both sexes, human, plasma, po, 300 mg
[8] = human volunteers, single oral dose 300 mg Pycnogenol, total plasma, mean ± SD
[9] = both sexes, human, plasma, oral, 300 mg, single dose 300 mg Pycnogenol, total plasma, read-out: cmax converted to molar concentration
[10] = 200 mg Pycnogenol once daily for five days
[11] = human, plasma, oral, 200 mg Pycnogenol once daily for five days, 4 h after last dose, with sulfatase and glucuronidase, mean ± mean deviation, read-out: Total plasma concentration
[12] = human, plasma, oral, 200 mg Pycnogenol once daily for five days, 4 h after last dose, without enzyme incubation, read-out: Free plasma concentration
[13] = both sexes, human, plasma, oral, 300 mg

O=C1c2c(O)cc(O)cc2O[C@H](c2ccc(O)c(O)c2)[C@H]1O (racemic) [Taxifolin, (±)-taxifolin] gave an AUC(0-t) [1, 3] of 231 ± 86 ng·h/mL, an AUC(0-t) [1, 4] of 399 ± 99 ng·h/mL and a Cmax [1, 5] of 33.3 ± 12.5 ng/mL. For the same compound, the tmax [1, 6] was 8 h, the half-life [1, 7] was 8.89 ± 2.81 h and the “tmax (time of maximal plasma concentration)” value [1, 8] was 8.2 ± 2.5 h.

In the case of O=C(O)Cc1ccc(O)c(O)c1 [3,4-dihydroxyphenylacetic acid], the “detection of taxifolin degradation products in volunteers' plasma” value ([1]; after Pycnogenol intake) is reported as “failed to detect”.

O=C(O)/C=C/c1ccc(O)c(O)c1 [Caffeic acid, caffeic acid] gave a Cmax [1, 9] of about 90 nM, an AUC(0-t) [1, 3] of 75.7 ± 33.5 ng·h/mL and an AUC(0-t) [1, 4] of 82.8 ± 36.5 ng·h/mL. For the same compound, the Cmax [1, 5] was about 17 ng/mL, the tmax [1, 6] was 3 to 4 h and the half-life [1, 7] was 4.42 ± 2.47 h. For the same compound, the “cmax (maximal plasma concentration)” value [1, 8] was 16.67 ± 13.29 ng/mL, the “tmax (time of maximal plasma concentration)” value [1, 8] was 3.7 ± 2.4 h and the Cmax ([2]; after ingestion of 107 mg caffeic acid from artichoke leaf extract) was 6.5 ng/mL. The tmax ([2]; after ingestion of red wine) was 2 h, the Cmax ([2]; after intake of 55 μg caffeic acid per kg body weight, read-out: cmax) was 84 nM and the tmax ([2]; after intake of red wine, coffee or artichoke leaf extract) was 0.5 to 1 h. For the same compound, the t½ [2] was 3.08 ± 1.53 h, the “% conjugated (mean degree of conjugation with sulfate and glucuronic acid)” value (“% conjugated” below) (clinical; [10]) was 69.4 ± 11.8% and the “% conjugated” value (clinical; 200 mg Pycnogenol once daily for five days, listed as caffeic acid) was 69.4% and 69%. The concentration at 4 h (clinical; [11]) was 2.42 ± 1.39 ng/mL, the concentration at 4 h (clinical; [12]) was 0.56 ± 0.02 ng/mL and the “individual degree of conjugation” value (clinical; single volunteers, 200 mg Pycnogenol daily for five days) was 59.6% and 61.5% and 87.6%.

In the case of Oc1cc(O)c2c(c1)O[C@H](c1ccc(O)c(O)c1)[C@@H](O)C2 [Catechin, (+)-catechin], the concentration at 0.5 h [1, 13] is reported as about 60 ng/mL, the concentration at 4 h [1, 13] is reported as about 100 ng/mL and the Cmax [1, 9] is reported as about 370 nM. The Cmax [1, 5] was about 100 ng/mL, the tmax [1, 6] was at most 3 h and the “cmax (maximal plasma concentration)” value [1, 8] was 107.22 ± 55.49 ng/mL. For the same compound, the “tmax (time of maximal plasma concentration)” value [1, 8] was 3.2 ± 1.7 h, the “time window of detection of unchanged compound in plasma” value ([2]; after a high single dose) was “between 30 min and 12 h” and the “free polyphenol concentration as share of total concentration” value ([2]; after a single dose of pure catechin) was 1.1 to 6.5%. The “time by which plasma concentrations were not significantly different from baseline” value ([2]; after ingestion of pure catechin) was at most 4 h, the tmax ([2]; human plasma, after ingestion of red wine or reconstituted red wine) was 1.5 h and the concentration at 4 h (clinical; [11]) was 48.6 ± 16.7 ng/mL. For the same compound, the concentration at 4 h (clinical; [12]) was 21 ± 13.1 ng/mL and the “free catechin concentration (share of total)” value (clinical; both, human, in vivo, 4 h) was “about 56%”.

COc1cc(/C=C/C(=O)O)ccc1O [Ferulic acid, ferulic acid] showed a Cmax [1, 9] of about 75 nM, an AUC(0-t) [1, 3] of 99 ± 28.1 ng·h/mL and an AUC(0-t) [1, 4] of 141 ± 73.9 ng·h/mL. The Cmax [1, 5] was about 15 ng/mL, the half-life [1, 7] was 6.87 ± 3.83 h and the “cmax (maximal plasma concentration)” value [1, 8] was 14.78 ± 5.89 ng/mL. For the same compound, the “tmax (time of maximal plasma concentration)” value [1, 8] was 1.2 ± 1.1 h, the “tmax (time of maximal plasma concentration)” value ([1]; human volunteers, single oral dose 300 mg Pycnogenol, total plasma, mean ± SD, listed as ferulic acid) was 0.5 to 1 h and 1 h and the plasma concentrations ([2]; after ingestion of 250 mg ferulic acid from breakfast cereals) was 150 to 210 nM. For the same compound, the “free ferulic acid (share)” value ([2]; after single ingestion of beer) was “around 25%”, the tmax ([2]; other report, ref 6) was 0.77 h and the tmax ([2]; other report, ref 27) was 1 to 3 h. For the same compound, the t½ [2] was 6.35 ± 2.95 h, the “% conjugated” value (clinical; [10]) was “≈ 100%” and the concentration at 4 h (clinical; human, in vivo, read-out: Total plasma concentration) was about 20 ng/mL.

For O=C1CCC(Cc2ccc(O)c(O)c2)O1 (centres unmarked) [M1, δ-(3,4-Dihydroxy-phenyl)-γ-valerolactone], the “time of first detection in plasma” value ([1]; after single dose 300 mg Pycnogenol, first sampling at 0.5 h) was 6 h, the “mean concentration at peak” value ([1]; around 10 h after single dose 300 mg Pycnogenol, total plasma) was 3.59 ng/mL and the Cmax [1, 9] was about 20 nM. The Cmax [1, 5] was about 4 ng/mL, the tmax [1, 6] was about 10 h and the “presence in plasma over the experimental period of 14 h” value ([1]; single dose 300 mg Pycnogenol) was “still present 14 h after Pycnogenol ingestion”. The earliest appearance ([2]; after green tea ingestion) was 3 h, the “time of peak plasma levels” value ([2]; after ingestion of green tea) was 5 to 12 h and the IC50 (MMP-9 release) was 500 nM. For the same compound, the “% conjugated” value (clinical; [10]) was “≈ 100%” and the concentration at 4 h (clinical; [11]) was 3.01 ng/mL.

In the case of COc1cc(CC2CCC(=O)O2)ccc1O (centres unmarked) [M2, δ-(3-Methoxy-4-hydroxy-phenyl)-γ-valerolactone], the “plasma concentration (not detected; lower limit of quantitation)” value ([1]; after single dose and repeated ingestion of Pycnogenol) is given as under 50 ng/mL and the IC50 (MMP-9 release) is given as 500 nM.

For Oc1cc(O)cc(O)c1 [phloroglucin], the “detection of taxifolin degradation products in volunteers' plasma” value ([1]; human, in vivo) was “failed to detect”.
